Experiments:
[1] = tested on: myocardial perfusion; assay: Rest-dipyridamole myocardial perfusion PET with Markovian homogeneity analysis; format: in vivo, human
Description: Study Patients. The population for this study consists of 1,034 consecutive subjects undergoing diagnostic, rest-dipyridamole, myocardial perfusion PET at The Weatherhead PET Center For Preventing and Reversing Atherosclerosis of the University of Texas Medical School—Houston. All subjects signed informed consent approved by the Committee for the Protection of Human Subjects of the University of Texas Health Science Center. A complete medical history was obtained on all patients undergoing diagnostic cardiac PET for assessment or follow-up of known CAD, for second opinions on revascularization procedures, for prior positive stress tests, for coronary calcification by CT, for chest pain or other symptoms, for screening, or for risk factors. A history of risk factors was obtained for age, sex, diabetes, hypertension, high cholesterol, family history of vascular disease, excess weight, lack of exercise, and past or present smoking, that were counted as positive even if treated, as with hypertensive or lipid-lowering medications.
PET. Patients were instructed to fast for 4 h and abstain from caffeine, theophylline, and cigarettes for 24 h before study. PET was performed using the University of Texas designed, Positron Posicam Auricle, bismuth germanate, 2-dimensional (2D) multislice tomograph with a reconstructed resolution of 10-mm full width at half maximum. Using a rotating rod source containing 148-185 MBq (4-5 mCi) of ^68Ge, transmission images to correct for photon attenuation contained approximately 40-60 million counts. Emission images obtained after intravenous injection of 925-1,850 MBq (25-50 mCi) of generator-produced ^82Rb contained 20-50 million counts depending on the age of the generator and size of the patient. After resting ^82Rb data acquisition, dipyridamole (0.142 mg/kg/min) was infused for 4 min. At 4 min after completion of the dipyridamole infusion, the same dose of ^82Rb was given intravenously.
Automated Quantitative Analysis of PET Images. […]

[2] = target: T1, endothelin 1A receptor (Sus scrofa, UniProt Q29010); settings: porcine saphenous vein-carotid artery interposition grafts; cited from earlier work
T1 construct: host or cells: in vivo, porcine vein grafts
T1 sequence (Q29010 21-427): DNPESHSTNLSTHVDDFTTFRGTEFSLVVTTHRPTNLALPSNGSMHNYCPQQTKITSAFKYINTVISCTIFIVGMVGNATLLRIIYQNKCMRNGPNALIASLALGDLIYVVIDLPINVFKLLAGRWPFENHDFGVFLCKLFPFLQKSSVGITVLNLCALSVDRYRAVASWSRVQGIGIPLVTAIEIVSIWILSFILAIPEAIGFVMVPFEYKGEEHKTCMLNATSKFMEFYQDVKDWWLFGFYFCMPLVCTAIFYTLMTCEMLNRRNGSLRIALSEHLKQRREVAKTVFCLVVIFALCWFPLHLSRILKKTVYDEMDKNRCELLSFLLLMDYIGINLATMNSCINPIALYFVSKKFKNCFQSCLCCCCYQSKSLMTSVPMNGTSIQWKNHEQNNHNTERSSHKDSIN

[3] = tested on: healthy adult hound dogs (left circumflex coronary artery, LCx, territory); assay: Endothelin-induced myocardial perfusion defects by 82Rb PET imaging in dogs; format: in vivo, dog; settings: for severity of perfusion defect after intracoronary infusion: intracoronary into LCx for 10 min, L-NMMA 100-400 μg/kg/min in five dogs vs ET-1; for AD i.c. pre-ET: LCx 82Rb uptake as % of baseline: intracoronary adenosine before ET-1; for AD i.c. post-ET: LCx 82Rb uptake as % of baseline: intracoronary adenosine after ET-1; for AD i.v.: LCx 82Rb uptake as % of baseline: intravenous adenosine 0.142 mg/kg/min after ET-1
Procedure: Experimental Preparation. The experimental protocol was approved by the Animal Welfare Committee of the University of Texas Health Sciences Center at Houston. After an overnight fast, healthy adult hound dogs (n=14) of both sexes, 21-35 kg, were anesthetized with 30 mg/kg pentobarbital sodium (Nembutal) and underwent endotracheal intubation and mechanical ventilation with adequate anesthesia maintained by small supplemental doses during the experiment. Arterial blood gases were maintained within physiological range by adjusting the mechanical ventilator with supplemental oxygen, core body temperature was maintained at 37° C. with a homeothermic blanket, and stable body position was maintained throughout the duration of the imaging protocol by using a specially designed portable cradle for both coronary arteriography and PET imaging without moving the dog strapped to the portable cradle.
Arterial access was obtained via the right femoral artery by standard Seldinger technique with an arterial micropuncture kit (Cook, Bloomington, Ind.) with a 6-F arterial sheath. All animals received 100 IU/kg of initial heparin bolus, with 50 IU/kg every hour for the duration of the experiment. A 6-F standard JL3 VistaBrite coronary guide catheter (Cordis-Cardiology, Miami Lakes, Fla.) was positioned under fluoroscopic guidance into the left main coronary artery ostium.
After a stable position for the guide catheter was obtained, a 0.014-in.-diameter Hi-Torque Whisper guide wire (Guidant, Indianapolis, Ind.) was placed in the left circumflex coronary artery (LCx). Over the coronary wire, a 2.3-F, 150-cm-long, 0.042-in.-minimal diameter Rapidtransit infusion catheter (Cordis-Cardiology) was positioned in the LCx, with the tip in the midsegment of the LCx artery proximal to the takeoff of the first large obtuse marginal branch. The guide wire was removed, the guide catheter was withdrawn into the aortic root, and the small catheter was left in place in the mid-LCx.
Experimental Protocol. Contrast angiograms were obtained to document the LCx as the dominant coronary artery and the small catheter position in the mid-LCx. With contrast solution diluted 50% with normal saline, different injection rates were tested to determine the rate at which back flow occurred into the proximal segment of the coronary artery. […] Dogs were then moved into the PET scanner without changing position on the special cradle, and a repeat subselective angiogram was performed under fluoroscopy on the PET imaging table to ensure that the small intracoronary infusion catheter positioned in the mid-LCx had not changed during transportation. PET imaging was carried out with the University of Texas-designed Posicam BGO multislice tomograph HZL/mPower (Positron, Houston) as previously described (e.g., Halcox et al., Circulation 106:653-658, 2002), with a reconstructed resolution of 10-mm full-width half-maximum. Images were acquired in two-dimensional mode with extended septa to minimize scattered counts with random coincidences corrected from the singles count rate.
On the basis of a 5-min positioning transmission scan, dogs were precisely positioned in the PET scanner and laser guides aligned to external body markers were used to check correct position for every image acquisition. With a rotating rod source containing 4-5 mCi of ^68Ge, transmission images to correct for photon attenuation contained about 70-90 million counts. Emission images obtained after intravenous injection of […]-1,110 MBq (25-30 mCi) of generator-produced rubidium-82 (^82Rb) contained about 20-30 million counts. The protocol used the following imaging sequence as illustrated in FIG. 7.
Step 1. Immediately after completion of a resting perfusion image with intravenous ^82Rb, 3 mg/ml adenosine (Fujisawa Healthcare, Deerfield, Ill.) was infused subselectively into the LCx for 4 min at 2 ml/min. […]

[4] = intracoronary ET-1 1.5-3.5 ng/kg/min for 10 min, repeated doses in six dogs

## OCCN(CCO)c1nc(N2CCCCC2)c2nc(N(CCO)CCO)nc(N3CCCCC3)c2n1 [dipyridamole]
[1]; patient with severe stress-induced perfusion defect
  lowest mean average quadrant activity on the dipyridamole scan: 63 % of maximum
[1]; patient with severe stress-induced perfusion defect, 0.34 at rest
  homogeneity index by Markovian analysis after dipyridamole: 0.49
[1]; young healthy volunteer without risk factors, 0.80 at rest
  homogeneity index by Markovian analysis after dipyridamole: 0.83

## Cc1cc(C)nc(O[C@H](C(=O)O)C(C)(c2ccccc2)c2ccccc2)n1 [BSF 302146, [+]-[S]-2-[4,6-dimethyl-pyridimin-2-yloxy]-3,3-diphenyl-butanoic acid]
[2]
  inhibition of neointimal and medial thickening: potent inhibitor

## CNC(=N)NCCC[C@H](N)C(=O)O [L-NMMA, N^G-monomethyl-L-arginine]
[3]
  severity of perfusion defect after intracoronary infusion: −2.48%

## CC[C@H](C)[C@H](NC(=O)[C@H](CC(=O)O)NC(=O)[C@H](CC(C)C)NC(=O)[C@H](Cc1cnc[nH]1)NC(=O)[C@@H]1CSSC[C@H](N)C(=O)N[C@@H](CO)C(=O)N[C@H]2CSSC[C@H](NC(=O)[C@H](CCC(=O)O)NC(=O)[C@H](CCCCN)NC(=O)[C@H](CC(=O)O)NC(=O)[C@H](CCSC)NC(=O)[C@H](CC(C)C)NC(=O)[C@H](CO)NC(=O)[C@H](CO)NC2=O)C(=O)N[C@@H](C(C)C)C(=O)N[C@@H](Cc2ccc(O)cc2)C(=O)N[C@@H](Cc2ccccc2)C(=O)N1)C(=O)N[C@H](C(=O)N[C@@H](Cc1c[nH]c2ccccc12)C(=O)O)[C@@H](C)CC [ET-1, endothelin-1]
[3]; Group 1
  ΔET − Baseline (severity of ET-induced defect): −12.7%
[3]; Group 1, after intracoronary ET-1, total dose 44.3 ng
  ET: LCx 82Rb uptake as % of baseline: 89.3%
[3]; Group 1, after intracoronary ET-1, total dose 44.3 ng, listed as ET
  ET: LCx 82Rb uptake as % of baseline: 89.3 ± 7.3%
[3]; Group 1, listed as ET
  ΔET − Baseline (severity of ET-induced defect): −12.7 ± 6.7%
[3]; Group 2
  ΔET − Baseline (severity of ET-induced defect): −11.1%
[3]; Group 2, after intracoronary ET-1, total dose 67.5 ng
  ET: LCx 82Rb uptake as % of baseline: 90.2%
[3]; Group 2, after intracoronary ET-1, total dose 67.5 ng, listed as ET
  ET: LCx 82Rb uptake as % of baseline: 90.2 ± 8.1%
[3]; Group 2, listed as ET
  ΔET − Baseline (severity of ET-induced defect): −11.1 ± 11.9%
[3]; [4]
  death because of ET-1 administration: no animal died
  tachyarrhythmia: No tachyarrhythmia developed
[3]
  severity of perfusion defect after intracoronary infusion: −10.13%
[3]; pilot dose-finding, three dogs, in several instances
  duration of perfusion defect after intracoronary ET-1 infusion: up to 5 h
[3]; pilot dose-finding, end of initial intracoronary ET-1 infusion
  time at which perfusion defect was first observed: ≥ 10 min

## Nc1ncnc2c1ncn2[C@@H]1O[C@H](CO)[C@@H](O)[C@H]1O [adenosine]
[3]; Group 1
  ΔAD i.c − ET (percent change in LCx uptake): 8.7%
  ΔAD i.v. − ET (change of defect after intravenous adenosine): +4.1%
  AD i.c. post-ET: LCx 82Rb uptake as % of baseline: 98.7%
  AD i.v.: LCx 82Rb uptake as % of baseline: 93.4%
[3]; Group 1 (n = 8, defect improved after i.v. adenosine)
  AD i.c. pre-ET: LCx 82Rb uptake as % of baseline: 102%
[3]; Group 1 (n = 8, defect improved after i.v. adenosine), listed as AD
  AD i.c. pre-ET: LCx 82Rb uptake as % of baseline: 102.0 ± 5.5%
[3]; Group 1, listed as AD
  AD i.c. post-ET: LCx 82Rb uptake as % of baseline: 98.7 ± 5.5%
  AD i.v.: LCx 82Rb uptake as % of baseline: 93.4 ± 6.0%
  ΔAD i.c − ET (percent change in LCx uptake): 8.7 ± 4.3%
  ΔAD i.v. − ET (change of defect after intravenous adenosine): 4.1 ± 2.0%
[3]; Group 2
  ΔAD i.c − ET (percent change in LCx uptake): 10.5%
  ΔAD i.v. − ET (change of defect after intravenous adenosine): −12.5%
  AD i.c. post-ET: LCx 82Rb uptake as % of baseline: 100.5%
  AD i.v.: LCx 82Rb uptake as % of baseline: 77.7%
[3]; Group 2 (n = 15, defect not improved or worse after i.v. adenosine)
  AD i.c. pre-ET: LCx 82Rb uptake as % of baseline: 101.3%
[3]; Group 2 (n = 15, defect not improved or worse after i.v. adenosine), listed as AD
  AD i.c. pre-ET: LCx 82Rb uptake as % of baseline: 101.3 ± 5.2%
[3]; Group 2, listed as AD
  AD i.c. post-ET: LCx 82Rb uptake as % of baseline: 100.5 ± 4.3%
  AD i.v.: LCx 82Rb uptake as % of baseline: 77.7 ± 14.5%
  ΔAD i.c − ET (percent change in LCx uptake): 10.5 ± 8.5%
  ΔAD i.v. − ET (change of defect after intravenous adenosine): −12.5 ± 9.2%
[3]; all experiments
  effect of intracoronary adenosine on ET-1-induced resting perfusion defects: normalized
[3]; doses comparable to clinical practice, all 23 protocol sequences
  effect of intravenous adenosine on vasoconstrictor effect of ET-1: only partially counteracted
[3]; group 1 (n=8)
  visual change of ET-1-induced perfusion defect after intravenous adenosine: improved
[3]; group 2 (n=15)
  visual change of ET-1-induced perfusion defect after intravenous adenosine: visually not improved or relatively worse
